Data taken from patent US9701660B2, “2,6-diaminopyridine compounds suitable for treating diseases associated with amyloid or amyloid-like proteins or for treating or preventing ocular diseases or conditions associated with a pathological abnormality/change in the tissue of the visual system” (AC Immune S.A., priority 2009, dated 2017).
“And” between values parts separate entries of the source, which are not always exact repeats. Identical values can stand only once.

How the values were obtained:
[1] = molecular target: T1, amyloid beta (Ab) 1-42 peptide (Homo sapiens, UniProt P05067); assay: Inhibition of amyloid beta (Ab) 1-42 peptide aggregation (thioflavin T spectrofluorescence assay); type: biochemical; conditions: mean of 2 experiments; Ab1-42 aggregation, 24 hrs at 37° C.; read-out: IC50 ThT-assay
T1 construct: amyloid beta (Ab) 1-42 peptide; purchased Bachem
T1 sequence (P05067 672-713 limits assumed): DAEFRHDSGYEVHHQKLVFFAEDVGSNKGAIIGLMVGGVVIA

[2] = Aqueous solubility in PBS (HPLC); type: physicochemical; conditions: for solubility at 24 h: PBS 1x, 24 hours at room temperature; for solubility in words, compared to compound 1: comparison
Method: Method for measuring the solubility:
• Plate shaker, Centrifuge (Eppendorf, 8 cm radius), HPLC (Dionex P580), Column: Agilent Zorbax Eclipse XDB-C18 rapid resolution (4.6×50 mm, […], Agilent), Uncoloured microtubes 1.5 mL (Eppendorf, 1.5 mL), Micropipettes […], Micropipettes […], Dulbecco's phosphate buffer, DMSO, ammonium formate, formic acid 98-100%, UP-H2O, acetonitrile HPLC grade, methanol GR analysis, PVDF membrane filter. 2. Method 2.1 Preparation of PBS 5× (Stored at 4° C.) and PBS1× for Analysis • PBS 5× • Dissolved the full content of PBS salt (D-5652-10L) in 2 L of UP-H2O. • PBS1× • Before analysis, dilute 5 fold the PBS 5× in order to prepare 30 mL of PBS1× and filter the solution using a syringe and any hydrophilic membrane e.g. PVDF membrane. 2.2 Preparation of HPLC Solvent (Stored at RT) • Solvent A: 13.3 mM ammonium formate/6.5 mM formic acid/UP-water
Dissolve 820±1 mg of ammonium formate and 245 μL of formic acid in 1000 mL of UP-H2O. • Solvent B: 6.0 mM ammonium formate/2.9 mM formic acid/90% acetonitrile/10% UP-water • Dissolve 378±1 mg of ammonium formate and 110 μL of formic acid in 900 mL acetonitrile and 100 mL of UP-H2O. 2.3 Preparation of the Stock Solution of the Compound • Dissolve compound in DMSO at a concentration of 25 mM (minimum […]). 2.4 Preparation of Standard Curve • Prepare 15 mL of methanol/H2O (6/4). • Prepare 5 standard calibrators: 250 μM, 200 μM, 50 μM, 12.5 μM and 3.13 μM in methanol/H2O (6/4). • Make preparations of each standard concentration in 1.5 microtubes.
• Transfer directly 250-300 μL from each microtube to an HPLC vial. • Run HPLC (from microtubes #6 to #1), using the following conditions:
C18 column, 0.7 mL/min, 20° C., UV detection at 254 nm, volume injection: 20 μL and one of the following gradients: […]
2.5. Preparation of the Sample for Aqueous Solubility • Prepare Samples of the Compound in Triplicates
• Shake it gently (350 rpm) for 24 hours at room temperature. • After the incubation time, centrifuge at 2500 g (5500 rpm) for 30 min. • Sample 200 μL of supernatant for HPLC analysis using the same conditions described in 2.4. 2.6. Data Treatment • Integrate area of each standard point peak at 254 nm. • Determine the standard curve for the compound by plotting the area vs. the theoretical concentration. Establish the standard curve equation based on a linear regression (with an intercept at 0, R^2≧0.90). y(area)=slope×x(concentration) • Calculate the average area of each triplicate prepared in aqueous phase.
The concentration of the compound in the supernatant is determined by the following formula: […]
The solubility of the compound is determined by the following formula: […]

[3] = molecular target: T1, amyloid beta (Ab) 1-42 peptide; assay: Inhibition of amyloid beta (Ab) 1-42 peptide aggregation (thioflavin T spectrofluorescence assay); type: biochemical; conditions: for ThT assay at 330 mM % inhib.: small molecule to Ab1-42 10:1, 24 hrs at 37° C.; for biological activity (ThT assay) in words, compared to compound 1 / compounds according to the invention: comparison; for inhibition at 330 µM: mean of the two ThT assays at 330 µM, read-out: Mean % inhib.
Method: A number of small molecules were tested for their capacity to inhibit the aggregation of amyloid beta (Ab) 1-42 peptide using a thioflavin T spectrofluorescence assay.
Ab1-42 lyophilized powder (Bachem) was reconstituted in hexafluoroisopropanol (HFIP) to 1 mM. The peptide solution was sonicated for 15 min at room temperature, agitated overnight, and aliquots were placed in non-siliconized microcentrifuge tubes. The HFIP was then evaporated under a stream of argon. The resulting peptide film was dried under vacuum for 10 min, tightly sealed and stored at −80° C. until used.
Ab1-42 peptide film was dissolved in DMSO to reach 400 μM. Assay solution in PBS buffer was prepared in non-siliconized incubation tubes to reach the following concentrations: […] Ab1-42, 10 μM thioflavin T (ThT), and 12.8% DMSO. Therefore, the final molar ratio of small molecule to Ab1-42 was 10:1. A positive control without a small molecule was prepared to measure maximum RFU. A negative control without Ab1-42 was prepared for each small molecule. 3-Aminopyrazole trimer (Trimer) was tested in all assays to ascertain reproducibility between independent experiments. The solutions were incubated for 24 hrs at 37° C., and the spectrofluorescence (relative fluorescence units; RFU) read in six replicates in black 384-well assay plates (Perkin-Elmer) on a Perkin-Elmer FluoroCount spectrofluorometer. Inhibition of aggregation is expressed as mean % inhibition or ±1 standard deviation (SD) according to the following equation: % inhibition=(RFU of positive control−RFU of negative control)−(RFU of sample with Aβ-42−RFU of sample without Aβ1-42)×100 • (RFU of positive control−RFU of negative control)
Cut-off criteria for selection of functional molecules were defined at 50% inhibition capacity. Molecules showing an inhibition capacity over 70% were considered as very strong candidates.

[4] = tested on: retinal ganglion cells (RGCs); assay: Rat model of chronic ocular hypertension (OHT)/glaucoma; type: in vivo, Dark Agouti rats; conditions: for number of viable RGCs: 3 weeks after intra-vitreal injection in the OHT eye, in comparison to the control group, p<0.001; for reduction of intraocular pressure: at 3 weeks, Tonopen
Method: A rat model of chronic ocular hypertension (OHT)/glaucoma was created by injecting hypertonic saline into the episcleral veins of one eye of Dark Agouti rats. 18 rats received an intra-vitreal injection containing a volume of 5 μL of compound 1 (ACI-260) at a concentration of 74 mg/L in the OHT eye. 18 rats served as negative control and received 5 μl of saline and 18 rats served as positive control and received 6 μL Congo Red (1.46 mg/mL). 6 animals/timepoint were euthanized at 3, 8 and 16 weeks after treatment.
Intraocular pressure (IOP) was measured using a Tonopen once every 4 weeks post dosing and prior to sacrifice (within 3 days). 5 to 7 days prior to sacrifice, animals were injected intra-cerebrally with 5 μL of 4% FluoroGold to label the retinal ganglion cells (RGCs). In order to quantify viable RGCs, images were processed using a specific system of image analysis software and viable RGCs were expressed per square millimeter.

[5] = PBS 1x (Dulbecco's phosphate buffer), aqueous buffer, kinetic from dmso stock, table with IC50
[6] = PBS 1x (Dulbecco's phosphate buffer), aqueous buffer, kinetic from dmso stock, table with % inhib.

SMILES	IC50 [1] [µM]	ThT assay at 330 mM % inhib. ([3]; experiment 1) [%]	ThT assay at 330 mM % inhib. ([3]; experiment 2) [%]	biological activity (ThT assay) in words, compared to compound 1 / compounds according to the invention [3]	solubility at 24 h [2, 6]	solubility in words, compared to compound 1 [2]	also measured
CNc1cccc(NCCc2cccc(NCCc3ccccn3)n2)n1 [Compound 1]	25.5	88.8	79.6				solubility at 24 h [2, 5]: 857 µM and 298 µg/mL; number of viable RGCs [4]: significantly increased; reduction of intraocular pressure [4]: not observed
CNc1cccc(NCCc2cccc(NCc3ccccn3)n2)n1 [Compound 2]	12.9						
CNc1cccc(CCNc2cccc(NCCc3ccccn3)n2)n1 [Compound 3]	35.3						solubility at 24 h [2, 5]: 206 µM and 71 µg/mL
CNc1cccc(NCCCc2cccc(NCCCc3ccccn3)n2)n1 [Compound 4]	16.5						solubility at 24 h [2, 5]: 38 µg/mL; solubility at 24 h ([2]; table with IC50): 103 µM
CNc1cccc(CCNc2cccc(CCNc3ccccn3)n2)n1 [Compound 5]	140			significantly decreased			
CNc1cccc(NCCc2ccccn2)n1 [Compound 6]		68.4	59.0	significantly reduced activity			inhibition at 330 µM [3]: 63.7%
CNc1cccc(CCNc2cccc(NC)n2)n1 [Compound 7]		77.6	70.3	significantly reduced activity	50 µg/mL		solubility at 24 h ([2]; table with % inhib.): 195 µM; inhibition at 330 µM [3]: 74%
CCCNc1ccc(NCc2ccc(NCc3ccc(NCCC)nc3)nc2)nc1 [Compound 8, reference compound]		73.3	80.7		1 µM and 0.4 µg/mL	significantly worse	
c1ccc(CCNc2cccc(NCCc3ccc4c(n3)NCCC4)n2)nc1 [Compound 9]		91.8	93.4	comparable activity to compound 1	154 µM and 57 µg/mL	worse	
FC(F)(CNc1cccc(NCCc2ccccn2)n1)c1ccc2c(n1)NCCC2 [Compound 10]		89.6	77.6	comparable activity to compound 1		worse	
FC(F)(CNc1cccc(NCCc2ccc3c(n2)NCCC3)n1)c1ccccn1 [Compound 11]		95.3	94.4	comparable activity to compound 1	119 µM and 48 µg/mL	worse	
FC(F)(CNc1cccc(NCC(F)(F)c2ccc3c(n2)NCCC3)n1)c1ccccn1 [Compound 12]		56.4	63.7	worse	21.5 µM and 9.5 µg/mL	worse	
CNc1cccc(CCNc2cccc(CCN(c3ccccn3)c3ccccn3)n2)n1 [Compound 13]	298						
Nc1c(/N=N/c2ccc(-c3ccc(/N=N/c4cc(S(=O)(=O)O)c5ccccc5c4N)cc3)cc2)cc(S(=O)(=O)O)c2ccccc12 [Congo Red, reference compound]							number of viable RGCs [4]: significantly increased; reduction of intraocular pressure [4]: not observed
